The values below come from paper PMC4979471 (Cell Death Discovery, 2015).

What all share (experiment): Kinase selectivity, P33-radiolabeled assay
Holding throughout (format): biochemical

In one test the target is T1, IRR/INSRR (Homo sapiens, UniProt P14616).
T1 construct: purchased Reaction Biology Corp
As to conditions: 10 μM ATP. The essentials: (§1)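 Each enzyme was exposed to 10 μM compound, with duplicate measurements, in reactions containing 10 μM ATP. Numbers are remaining activity as a percent of the vehicle (DMSO) signal.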

A further test concerns the target T2, MEK2 (Homo sapiens, UniProt P36507).
T2 construct: purchased Reaction Biology Corp
The essentials:
as §1

A further test addresses T3, PKCmu/PRKD1 (Homo sapiens, UniProt Q15139).
T3 construct: purchased Reaction Biology Corp
T3 sequence (Q15139 1-912): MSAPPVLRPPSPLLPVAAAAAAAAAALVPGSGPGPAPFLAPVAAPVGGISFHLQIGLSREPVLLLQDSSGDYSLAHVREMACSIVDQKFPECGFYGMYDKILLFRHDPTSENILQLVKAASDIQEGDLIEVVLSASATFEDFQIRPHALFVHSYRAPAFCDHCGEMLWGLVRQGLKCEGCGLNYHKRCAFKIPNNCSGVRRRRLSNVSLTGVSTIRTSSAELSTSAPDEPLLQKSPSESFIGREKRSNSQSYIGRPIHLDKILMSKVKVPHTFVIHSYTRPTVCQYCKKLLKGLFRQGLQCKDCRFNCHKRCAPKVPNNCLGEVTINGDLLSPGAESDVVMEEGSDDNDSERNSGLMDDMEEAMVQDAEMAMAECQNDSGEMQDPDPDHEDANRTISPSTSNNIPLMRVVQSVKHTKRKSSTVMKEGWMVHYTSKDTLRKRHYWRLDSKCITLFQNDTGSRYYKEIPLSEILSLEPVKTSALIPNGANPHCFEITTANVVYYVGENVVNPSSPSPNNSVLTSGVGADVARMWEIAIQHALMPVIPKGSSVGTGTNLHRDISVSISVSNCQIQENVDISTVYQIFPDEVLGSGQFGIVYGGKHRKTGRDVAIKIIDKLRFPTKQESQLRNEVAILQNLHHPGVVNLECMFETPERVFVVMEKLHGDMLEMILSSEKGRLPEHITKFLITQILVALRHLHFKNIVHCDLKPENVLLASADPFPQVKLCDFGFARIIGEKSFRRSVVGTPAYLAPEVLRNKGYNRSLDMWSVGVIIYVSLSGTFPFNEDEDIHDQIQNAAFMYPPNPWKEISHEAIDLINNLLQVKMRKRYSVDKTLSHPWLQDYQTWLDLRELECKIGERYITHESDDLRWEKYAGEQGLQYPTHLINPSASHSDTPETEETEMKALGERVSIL
The essentials:
as §1

The target of another test is T4, PLK4/SAK (Homo sapiens, UniProt O00444).
T4 construct: purchased Reaction Biology Corp
T4 sequence (O00444 1-970): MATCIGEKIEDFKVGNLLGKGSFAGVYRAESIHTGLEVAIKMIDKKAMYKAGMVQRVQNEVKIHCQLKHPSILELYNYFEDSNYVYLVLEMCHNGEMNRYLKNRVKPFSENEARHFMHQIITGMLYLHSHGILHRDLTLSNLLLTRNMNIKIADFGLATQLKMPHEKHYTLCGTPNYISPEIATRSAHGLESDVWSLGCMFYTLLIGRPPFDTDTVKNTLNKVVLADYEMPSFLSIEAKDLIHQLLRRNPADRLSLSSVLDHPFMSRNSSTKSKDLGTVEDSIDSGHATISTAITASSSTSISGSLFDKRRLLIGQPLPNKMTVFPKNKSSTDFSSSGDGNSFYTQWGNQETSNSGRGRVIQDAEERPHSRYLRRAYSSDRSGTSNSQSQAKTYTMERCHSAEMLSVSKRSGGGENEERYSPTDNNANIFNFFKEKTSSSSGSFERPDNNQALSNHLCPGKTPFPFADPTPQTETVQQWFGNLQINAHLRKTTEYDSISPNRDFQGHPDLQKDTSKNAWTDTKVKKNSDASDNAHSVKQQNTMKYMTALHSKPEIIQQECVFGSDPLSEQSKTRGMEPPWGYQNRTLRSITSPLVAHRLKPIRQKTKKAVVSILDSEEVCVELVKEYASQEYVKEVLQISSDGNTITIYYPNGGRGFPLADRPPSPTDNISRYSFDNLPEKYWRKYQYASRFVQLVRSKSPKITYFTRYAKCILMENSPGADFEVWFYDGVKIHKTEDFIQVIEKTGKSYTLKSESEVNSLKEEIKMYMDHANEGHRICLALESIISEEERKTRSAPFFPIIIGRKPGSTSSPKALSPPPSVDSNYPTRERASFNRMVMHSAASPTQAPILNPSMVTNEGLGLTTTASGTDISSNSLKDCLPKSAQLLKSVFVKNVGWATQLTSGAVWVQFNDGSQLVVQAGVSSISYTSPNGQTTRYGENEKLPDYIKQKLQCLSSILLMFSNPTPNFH
As to conditions: 10 μM ATP. The essentials: as §1

Where [1] appears, read: read-out: % Enzyme Activity (relative to DMSO controls) AVG.
Where [2] appears, read: read-out: % Enzyme Activity (relative to DMSO controls) Data 1.
[3] abbreviates: read-out: % Enzyme Activity (relative to DMSO controls) Data 2.
The mark [4] stands for this setting: 10 uM, 10 μM ATP, read-out: % Enzyme Activity (relative to DMSO controls) Data 2.

The structures appear in SMILES notation. Where two headings read alike, the source gives them in different places.

T2 sequence (P36507 whole entry): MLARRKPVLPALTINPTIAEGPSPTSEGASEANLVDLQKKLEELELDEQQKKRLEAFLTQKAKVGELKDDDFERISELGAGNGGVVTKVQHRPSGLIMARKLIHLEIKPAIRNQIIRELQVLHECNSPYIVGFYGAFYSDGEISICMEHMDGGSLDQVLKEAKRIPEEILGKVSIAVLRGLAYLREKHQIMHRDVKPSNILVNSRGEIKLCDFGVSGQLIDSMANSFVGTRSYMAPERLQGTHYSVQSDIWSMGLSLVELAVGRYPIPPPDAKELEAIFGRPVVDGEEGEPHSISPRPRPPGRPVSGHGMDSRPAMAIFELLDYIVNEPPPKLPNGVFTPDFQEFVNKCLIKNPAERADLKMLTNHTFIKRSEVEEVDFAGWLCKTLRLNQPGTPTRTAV
T1 sequence (P14616 27-1297): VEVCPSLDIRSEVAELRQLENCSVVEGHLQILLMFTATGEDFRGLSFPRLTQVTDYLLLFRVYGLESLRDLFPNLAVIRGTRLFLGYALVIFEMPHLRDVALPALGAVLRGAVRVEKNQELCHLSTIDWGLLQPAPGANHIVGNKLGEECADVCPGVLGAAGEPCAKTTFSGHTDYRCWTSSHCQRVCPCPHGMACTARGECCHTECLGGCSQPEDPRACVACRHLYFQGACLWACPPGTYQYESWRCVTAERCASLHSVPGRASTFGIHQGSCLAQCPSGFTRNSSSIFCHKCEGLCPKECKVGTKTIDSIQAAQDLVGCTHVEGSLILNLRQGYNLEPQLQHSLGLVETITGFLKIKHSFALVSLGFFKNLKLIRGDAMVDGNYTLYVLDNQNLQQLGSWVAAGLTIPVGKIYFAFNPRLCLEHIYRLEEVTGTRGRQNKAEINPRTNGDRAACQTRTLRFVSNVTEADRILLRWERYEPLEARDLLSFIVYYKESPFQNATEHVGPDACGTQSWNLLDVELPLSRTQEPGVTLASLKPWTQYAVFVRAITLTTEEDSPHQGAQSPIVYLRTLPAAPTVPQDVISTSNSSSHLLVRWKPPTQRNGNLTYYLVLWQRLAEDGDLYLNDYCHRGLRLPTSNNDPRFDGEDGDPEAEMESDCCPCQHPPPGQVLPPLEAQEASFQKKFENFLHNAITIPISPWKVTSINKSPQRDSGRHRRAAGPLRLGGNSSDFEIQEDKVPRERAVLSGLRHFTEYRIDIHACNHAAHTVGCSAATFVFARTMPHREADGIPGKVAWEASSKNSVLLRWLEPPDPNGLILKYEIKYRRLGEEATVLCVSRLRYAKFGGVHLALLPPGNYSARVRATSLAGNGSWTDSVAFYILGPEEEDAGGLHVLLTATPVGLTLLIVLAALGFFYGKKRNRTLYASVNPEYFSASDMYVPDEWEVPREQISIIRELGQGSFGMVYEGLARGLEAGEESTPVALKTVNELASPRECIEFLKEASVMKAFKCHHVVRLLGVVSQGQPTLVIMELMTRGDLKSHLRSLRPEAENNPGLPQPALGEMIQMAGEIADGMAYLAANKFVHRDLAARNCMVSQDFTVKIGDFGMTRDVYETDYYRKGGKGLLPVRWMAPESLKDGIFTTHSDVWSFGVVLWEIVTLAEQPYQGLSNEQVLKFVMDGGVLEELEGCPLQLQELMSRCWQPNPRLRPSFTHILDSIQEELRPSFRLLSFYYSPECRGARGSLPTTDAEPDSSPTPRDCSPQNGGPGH

Consider `CC(C)(C)C(=O)N1N=CC[C@H]1c1ccccc1` [GSK′963], for which the remaining activity at 10 µM at IRR/INSRR (setting [1]) is 75.3%; on IRR/INSRR (setting [2]), 72.8%; on IRR/INSRR (setting [3]), 77.7%; at MEK2 (10 uM, 10 μM ATP, read-out: % Enzyme Activity (relative to DMSO controls) AVG), 102%; on MEK2 (setting [4]), 103%; on MEK2 (setting [2]), 101%. For the same molecule, the remaining activity at 10 µM worked out at 99.9% at PKCmu/PRKD1 (10 uM, 10 μM ATP, read-out: % Enzyme Activity (relative to DMSO controls) Data 1); 103% at PKCmu/PRKD1 (setting [4]); 101% on PKCmu/PRKD1 (setting [1]); 113% on PLK4/SAK (setting [1]); 114% on PLK4/SAK (setting [2]); 112% at PLK4/SAK (setting [3]).
